PMC3929365, “Benzimidazoisoquinolines: A New Class of Rapidly Metabolized Aryl Hydrocarbon Receptor (AhR) Ligands that Induce AhR-Dependent Tregs and Prevent Murine Graft-Versus-Host Disease” (PLoS ONE, 2014)

How the values were obtained:
AhR = experiment: Electrophoretic mobility shift assay, binding of AhR to XRE; format: biochemical, mouse; settings: 10 nM, 2 h, Hepa1c1c7 whole cell lysate
Experimental: Figure 1 10-Cl-BBQ is a potent AhR ligand. A) Structure of 10-Cl-BBQ. […] C) Hepa-1 cells expressing endogenous AhR were transfected with an AhR-regulated luciferase reporter gene (xenobiotic responsive element (XRE)-MMTVpromoter-Luc) and the reporter gene activity was measured after 12 h of treatment with 1 nM TCDD or the indicated concentrations of 10-Cl-BBQ. D) Alteration in proteolytic pattern of AhR by 10-Cl-BBQ. Whole cell lysate (45 µg of protein) from mouse hepatoma Hepa1c1c7 cells was incubated with 100 nM 10-Cl-BBQ or 0.1% DMSO for 1 h at RT and proteolyzed by 1 µg/ml subtilisin for 1, 2, 4, and 8 min at RT. Proteolytic cleavage products of AhR were analyzed by immunoblot. E) Electrophoretic mobility shift assay showing the ligand-stimulated binding of AhR to XRE. Whole cell lysate (18 µg of protein) from mouse hepatoma Hepa1c1c7 cells was incubated with 10 nM 10-Cl-BBQ or 0.1% DMSO for 2 h at room temperature and ^32P-labeled oligonucleotide containing XRE for 20 min at room temperature. The samples were electrophoresed on a native polyacrylamide gel and the signal was visualized by Phosphor Imager. Unlabeled competitor XRE or antibody (Ab) against AhR or Arnt was co-incubated with ^32P-labeled oligonucleotide.

[1] = Pharmacokinetics: serum concentration after single i.p. injection; format: in vivo, C57Bl/6 mice; settings: 10 mg/kg i.p., mouse
Experimental: C57Bl/6 mice were injected i.p. with 10 mg/kg 10-Cl-BBQ. At defined time points, blood was collected by cardiac puncture. Serum was harvested and protein was precipitated by adding a 4-fold volume of ice-cold acetonitrile. The supernatant was collected and analyzed on a QTRAP 4000 LC/MS/MS instrument using an Agilent C8 UPLC column. The serum concentration of 10-Cl-BBQ was determined using a standard curve prepared using dilutions of 10,000; 5,000; 1,000; 500; 100; 50 and 10 pg/ml of 10-Cl-BBQ. The mean values (n = 2–3 mice per time point) are shown with SEM. Pharmacokinetic parameters were calculated using PKsolver software.
Figure 2 Pharmacokinetics of 10-Cl-BBQ. C57BL/6 mice were given 10 mg/kg 10-Cl-BBQ by i.p. injection. A) Blood was collected at the indicated times by cardiac puncture. The serum was processed to remove protein and the samples were analyzed by QTRAP 4000 LC/MS/MS. The serum concentration of 10-Cl-BBQ was determined from a standard curve based on known concentrations of 10-Cl-BBQ. B) Liver tissue was harvested and processed for mRNA analysis. CYP1A1 gene expression was determined relative to the β-actin gene, and the fold-induction was determined by the ΔΔCt method using the vehicle-treated samples as a control. The mean values are shown with SEM for 2–3 mice per time point.

GVHD = experiment: Graft-versus-host disease (GVHD) model, 15 days; format: in vivo; settings: for GVHD pathology (clinical pathology score): 10 mg/kg then 2 mg/kg/day, day 15
Experimental: Splenocytes and lymphocytes were harvested from C57Bl/6 mice. In some experiments, T cells were purified by negative selection using a Pan-T kit (Miltenyi Biotec) and stained with 2 µM carboxyfluorescein succinimidyl ester (CFSE) (Life Technologies). At least 2×10^7 purified T cells or approximately 1×10^8 pooled splenocytes and lymphocytes were injected i.v. into B6D2F1 host mice to initiate the GVH response. GVHD pathology was assessed on a scale of 0 to 3 (0 = normal, 1 = moderate morbidity, 2 = severe morbidity, 3 = death) according to the following five criteria: weight-loss, posture, activity, fur texture and death and reported as a Clinical GVHD Score.
Host mice were treated daily with vehicle, 10-Cl-BBQ or BBQ analogues by i.p. injection. The vehicle consisted of a mixture of 6.7% anisole and peanut oil. Mice treated with a single i.p. dose of 15 µg TCDD/kg body weight in the same vehicle were used as positive controls.
Figure 4 10-Cl-BBQ suppresses GVHD in an AhR-dependent manner. A) B6D2F1 host mice were injected with wild-type (WT) or AhR-deficient (AhR^−/−) splenocytes to initiate the GVH response; mice were given 10-Cl-BBQ or vehicle treatments daily for 15 days. A single loading dose of 10 mg/kg 10-Cl-BBQ was given at the time of donor cell injection and a maintenance dose of 2 mg/kg was given every day thereafter until the end of the experiment. The progression of GVHD was monitored and a clinical pathology score as defined in Methods was calculated. GVHD was suppressed by 10-Cl-BBQ only if the donor cells expressed AhR. In a separate study, B6D2F1 host mice in groups of 6 were injected with splenocytes from C57Bl/6 mice to initiate the GVH response, and treated with 10-Cl-BBQ or vehicle daily for 15 days as in (A). TCDD (15 µg/kg) was given to an additional group of 6 mice on day 0 as a positive control. […] The donor cells were identified in the host spleen as the H-2D^d negative population.* = p<0.05 vs vehicle control. TEXT PRINTED IN THE PICTURE: (C) TCDD: 17 | (C) 10-Cl-BBQ: 11 | (E) TCDD: 29 | (E) 10-Cl-BBQ: 35 DOUBTS OF THE COPYIST ABOUT THIS PICTURE: Panels C and E: the numbers inside the flow cytometry plots are printed without any measure or unit, so they are copied as bare numbers (plot axes: CD44 vs CD45RB in C, CD19 vs H-2D^d in E). / The Vehicle control plots also print numbers (C: 36; E: 2). They are not listed in lines because Vehicle is a control, not a substance.

Compound: O=c1c2cccc3cccc(c32)c2nc3ccc(Cl)cc3n12 [10-Cl-BBQ, 10-chloro-7H-benzimidazo[2,1-a]benzo[de]isoquinolin-7-one]
- DNA binding of AhR (XRE) (AhR): specifically induced DNA binding of AhR
- absorption rate constant (ka) [1]: 1.2 h⁻¹
- time required to reach Cmax (Tmax) [1]: 1.64 h
- total clearance/bioavailability (CL/F) [1]: 32.5 mL/min
- half-life ([1]; C57Bl/6, serum, ip, one compartment model): ~2 h
- AUC(0-inf) ([1]; C57Bl/6, serum, ip, read-out: area under the concentration-time curve (AUC0-∞)): 0.103 µg·h/mL
- Cmax ([1]; C57Bl/6, serum, ip, read-out: maximum concentration reached in serum (Cmax)): 0.0215 µg/mL
- Vd/F ([1]; C57Bl/6, serum, ip, read-out: volume of distribution/bioavailability (V/F)): 5.66 L
- GVHD pathology (clinical pathology score) (GVHD; AhR-deficient donor cells): not affected
- GVHD pathology (clinical pathology score) (GVHD; AhR-wild type donor cells): significantly reduced
- overt toxicity (GVHD; daily treatment during the GVH response): without overt toxicity
- engraftment of donor cells in host spleen (GVHD; day 15, 10 mg/kg then 2 mg/kg daily): significantly reduced the engraftment of donor cells
